From patent US20260062422A1 (Halda Therapeutics OpCo, Inc., priority 2022, published 2026) come the findings set out here.

One may read the GI50 as the concentration giving 50% growth inhibition. High values mean less potent growth inhibition, low ones more potent growth inhibition.

Assay [1] concerns T-Rex 293 cell line SC3 cells lacking increased expression of androgen receptor protein. Description: Cellular growth inhibition, T-Rex 293 SC3 cells without doxycycline, CellTiter-Glo. To be noted: T-Rex 293 SC3 cells not exposed to doxycycline, CellTiter-Glo 2.0. Type of assay: cell-based. A digest of the protocol: (§1)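 Doxycycline-inducible androgen receptor T-Rex 293 clone SC3, seeded at 2500/well in phenol red-free DMEM with 10% charcoal-dextran FBS, without doxycycline or with 10 ng/mL to induce receptor. Compound added after 24 h (0.5% DMSO), 72 h at 37 °C; CellTiter-Glo 2.0 luminescence, GI50 by four-parameter fit.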

Assay [2] relates to T-Rex 293 cell line SC3 cells having increased expression of androgen receptor protein due to exposure to doxycycline. Description: Cellular growth inhibition, T-Rex 293 SC3 cells with doxycycline (androgen receptor induced), CellTiter-Glo. The conditions noted are these: T-Rex 293 SC3 cells with 10 ng/mL doxycycline (increased androgen receptor expression). Type of assay: cell-based. A digest of the protocol: as §1
Background: Cellular ATP, detected with luciferase, serves as a proxy for viable cell number.

The test system of assay [3] is VCaP cells. In words: Cellular growth inhibition assay for VCaP cells, CellTiter-Glo. To be noted: 72 hours treatment, CellTiter-Glo 2.0. It is filed as cell-based, human. A digest of the protocol:
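GI50 values come from four-parameter curve fits of luminescence data normalized to a zero baseline. Compound, in medium with 0.5% DMSO, was added one day after plating and left for 72 h before CellTiter-Glo 2.0 addition.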

Assay [4] relates to T47D cells. In words: Cellular growth inhibition assay for T47D cells, CellTiter-Glo. It is filed as cell-based, human. The conditions noted are these: 72 hours treatment, CellTiter-Glo 2.0 cell viability. A digest of the protocol: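 Cells are plated at 3000/well and allowed 24 h before treatment. Test compound in medium containing 0.5% DMSO is then added, with DMSO-only wells as negative control, and plates are incubated 72 h at 37 °C. ATP luminescence (CellTiter-Glo 2.0) is then fitted to four parameters to derive GI50.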

For the compound `Cc1sc2c(c1C)C(c1ccc(O[C@H]3C[C@@H](N(C(C)C)C4CCN(c5ncc(C(=O)N[C@H]6C(C)(C)[C@H](Oc7ccc(C#N)c(Cl)c7)C6(C)C)cn5)CC4)C3)cc1)=N[C@@H](Cc1ncco1)c1nnc(C)n1-2` [Compound I-281], the GI50 in assay [1] (72 h) is 500 to 1500 nM; in assay [2] (72 h) it was less than 500 nM; in assay [3] (Homo sapiens, VCaP, 72 h), less than 500 nM; in assay [4] (Homo sapiens, T47D, 72 h), less than 500 nM.

In the case of `Cc1sc2c(c1C)C(c1ccc(CC3CC(OC4CCN(c5ncc(C(=O)N[C@H]6C(C)(C)[C@H](Oc7ccc(C#N)c(Cl)c7)C6(C)C)cn5)CC4)C3)cc1)=N[C@@H](C)c1nnc(C)n1-2` (stereo partly shown) [Compound I-445], the GI50 in assay [1] (72 h) is greater than 3000 nM; in assay [2] (72 h), less than 500 nM; in assay [3] it was less than 500 nM; in assay [4] (Homo sapiens, T47D, 72 h), less than 500 nM.

For `Cc1sc2c(c1C)C(c1ccc(CC3CC4(CCN(c5ncc(C(=O)N[C@H]6C(C)(C)[C@H](Oc7ccc(C#N)c(Cl)c7)C6(C)C)cn5)CC4)C3)cc1)=N[C@@H](Cc1ncco1)c1nnc(C)n1-2` [Compound I-142], the GI50 in assay [1] (72 h) is greater than 3000 nM; in assay [2] (72 h) it was less than 500 nM; in assay [3] (Homo sapiens, VCaP, 72 h), greater than 3000 nM; in assay [4] (Homo sapiens, T47D, 72 h) it was greater than 3000 nM.

Regarding `Cc1sc2c(c1C)C(c1ccc(CC(=O)N3CCC(c4ncc(C(=O)N[C@H]5C(C)(C)[C@H](Oc6ccc(C#N)c(Cl)c6)C5(C)C)cn4)CC3)cc1)=N[C@H](Cc1ncco1)c1nnc(C)n1-2` [Compound I-370], the 50% growth inhibitory concentration (GI50) in assay [1] (72 h) was greater than 3000 nM; in assay [2] (72 h), less than 500 nM; in assay [3] (Homo sapiens, VCaP, 72 h), less than 500 nM; in assay [4] (Homo sapiens, T47D, 72 h) it was 500 to 1500 nM.

For `CCNC(=O)C[C@@H]1N=C(c2ccc(CCCN3CCN(c4ncc(C(=O)N[C@H]5C(C)(C)[C@H](Oc6ccc(C#N)c(Cl)c6)C5(C)C)cn4)CC3)cc2)c2c(sc(C)c2C)-n2c(C)nnc21` [Compound I-99], the GI50 is 500 to 1500 nM in assay [1] (72 h); less than 500 nM in assay [2] (72 h); 500 to 1500 nM in assay [3] (Homo sapiens, VCaP, 72 h); less than 500 nM in assay [4] (Homo sapiens, T47D, 72 h).

`Cc1sc2c(c1C)C(c1ccc(OC[C@@H]3CCCN(c4ncc(C(=O)N[C@H]5C(C)(C)[C@H](Oc6ccc(C#N)c(Cl)c6)C5(C)C)cn4)C3)cc1)=N[C@@H](Cc1ncco1)c1nnc(C)n1-2` [Compound I-254]: the GI50 in assay [1] (72 h) was less than 500 nM; in assay [2] (72 h) it was less than 500 nM; in assay [3] (Homo sapiens, VCaP, 72 h), less than 500 nM; in assay [4] (Homo sapiens, T47D, 72 h) it was less than 500 nM.

`Cc1sc2c(c1C)C(c1ccc(C[C@H]3C[C@@H](OC4CCN(c5ncc(C(=O)N[C@H]6C(C)(C)[C@H](Oc7ccc(C#N)c(Cl)c7)C6(C)C)cn5)CC4)C3)cc1)=N[C@@H](Cc1ncco1)c1nnc(C)n1-2` [Compound I-427]: the GI50 was greater than 3000 nM in assay [1] (72 hours), less than 500 nM in assay [2] (72 hours), less than 500 nM in assay [3] and less than 500 nM in assay [4].

In the case of `COCC[C@@H]1N=C(c2ccc(CC3CC4(CCN(c5cnc(C(=O)N[C@H]6C(C)(C)[C@H](Oc7ccc(C#N)c(Cl)c7)C6(C)C)cn5)CC4)C3)cc2)c2c(sc(C)c2C)-n2c(C)nnc21` [Compound I-586], the GI50 is greater than 3000 nM in assay [1] (72 h); less than 500 nM in assay [2] (72 h); less than 500 nM in assay [3] (Homo sapiens, VCaP, 72 h); less than 500 nM in assay [4] (Homo sapiens, T47D, 72 h).

As to `CC[C@@H]1N=C(c2ccc(C#CC3CC4(C3)CN(c3cnc(C(=O)N[C@H]5C(C)(C)[C@H](Oc6ccc(C#N)c(Cl)c6)C5(C)C)cn3)C4)cc2)c2c(sc(C)c2C)-n2c(C)nnc21` [Compound I-583], the GI50 is 500 to 1500 nM in assay [1] (72 h); less than 500 nM in assay [2] (72 h); less than 500 nM in assay [3] (Homo sapiens, VCaP, 72 h); less than 500 nM in assay [4] (Homo sapiens, T47D, 72 h).

As for `CCNC(=O)C[C@@H]1N=C(c2ccc(N3CC(N(C)C4CCN(c5ncc(C(=O)N[C@H]6C(C)(C)[C@H](Oc7ccc(C#N)c(Cl)c7)C6(C)C)cn5)CC4)C3)cc2)c2c(sc(C)c2C)-n2c(C)nnc21` [Compound I-122], the GI50 was 500 to 1500 nM in assay [1] (72 h); less than 500 nM in assay [2] (72 h); less than 500 nM in assay [3] (Homo sapiens, VCaP, 72 h); less than 500 nM in assay [4] (Homo sapiens, T47D, 72 h).
